In patent publication US5075287A, “Muramyl peptide derivatives and immunoregulating compositions containing them” (priority 1989, dated 1991):
Read-outs that look alike come from different tables or passages of the source.

Tests used:
[1] = test system: influenza HA vaccine (B/Nagasaki/1/87 strain); format: in vivo, female CDF1 mice; settings: Experiment 2, 8000-fold dilution
[2] = test system: hepatitis B virus surface antigen (HBs); test: Hepatitis-vaccine enhancing activity (adjuvant activity): anti-HBs IgG in mouse serum by ELISA; format: in vivo, female CDF1 mice; settings: Experiment 2, 2000-fold dilution
Procedure: A compound of the present invention was dissolved in lipidmicrosphere (1 mg/ml). On the other hand, a solution of hepatitis B virus surface antigen (HBs) in physiological saline was prepared (50 μg/ml). The above solutions in equal amounts were mixed to prepare a test solution. A control solution was prepared by the exclusion of the compound of the present invention from said test solution. A mixture of a suspension of aluminium hydroxide gel in physiological saline (1 mg/ml) and said hepatitis vaccine preparation in equal amounts was prepared as another control solution. The test solution (0.2 ml) was intraperitoneally administered to each mouse in one group consisting of seven female CDF1 mice.
Blood samples were collected from the fundus ocluli vein of each mouse every week after the administration and then centrifuged to obtain serums. Three weeks after the administration, 0.2 ml of the test liquid was intraperitoneally administered again to each mouse for secondary stimulation. Then blood collecting was conducted every week to obtain serums after the application of the secondary stimulation, in the same manner as that described above.
The amount of the IgG antibodies against the hepatitis B virus surface antigens (HBs) in the serums thus obtained was determined with an ELISA method.

[3] = 4 W (after secondary stimulation at 3 weeks)
[4] = 5 W (after secondary stimulation at 3 weeks)

SMILES	Anti HA serum antigen value (average value ± S.D.) ([1]; 1 W)	Anti HA serum antigen value (average value ± S.D.) ([1]; 2 W)	Anti HA serum antigen value (average value ± S.D.) ([1]; 3 W)	Anti HA serum antigen value (average value ± S.D.) [1, 3]	Anti HA serum antigen value (average value ± S.D.) [1, 4]	Anti-HBs IgG antibody level in serum (ELISA absorbance at 415 nm) ([2]; 1 W)	Anti-HBs IgG antibody level in serum (ELISA absorbance at 415 nm) ([2]; 2 W)	Anti-HBs IgG antibody level in serum (ELISA absorbance at 415 nm) ([2]; 3 W)	Anti-HBs IgG antibody level in serum (ELISA absorbance at 415 nm) [2, 3]	Anti-HBs IgG antibody level in serum (ELISA absorbance at 415 nm) [2, 4]
CCCCCCCCCCCCCCCCCCCCCCCC(=O)O[C@H](CCCCCCCCCCC)CC(=O)S[C@@H]1O[C@H](CO)[C@@H](O)[C@H](O[C@H](C)C(=O)N[C@@H](C)C(=O)N[C@H](CCC(=O)OC)C(N)=O)[C@H]1NC(C)=O [Example 27, N-[2-0-{2-Acetamido-2,3-dideoxy-1-S-((3R)-3-tetracosanoyloxytetradecanoyl)-1-thio-β-D-glucopyranos-3-yl}-D-lactoyl]-L-alanyl-D-isoglutamine methylester]	0 O.D 415 nm	0.110 ± 0.003 O.D 415 nm	0.161 ± 0.003 O.D 415 nm	0.751 ± 0.004 O.D 415 nm	0.805 ± 0.008 O.D 415 nm	0.003 ± 0.003 O.D 415 nm	0.031 ± 0.002 O.D 415 nm	0.052 ± 0.000 O.D 415 nm	0.580 ± 0.016 O.D 415 nm	0.573 ± 0.013 O.D 415 nm
CCCCCCCCCCCCCCCCCCCCCCCC(=O)O[C@H](CCCCCCCCCCC)CC(=O)S[C@@H]1O[C@H](COC(=O)CCCCCCCCCCCCCCCCC)[C@@H](O)[C@H](O[C@H](C)C(=O)N[C@@H](C)C(=O)N[C@H](CCC(=O)OC)C(N)=O)[C@H]1NC(C)=O [Example 28, N-[2-0-{2-Acetamido-2,3-dideoxy-6-0-octadecanoyl-1-S-((3R}-3-tetracosanoyloxytetradecanoyl)-1-thio-β-D-glucopyranos-3-Yl}-D-lactoyl]-L-alanyl-D-isoglutamine methylester]	0.008 ± 0.004 O.D 415 nm	0.041 ± 0.004 O.D 415 nm	0.061 ± 0.001 O.D 415 nm	0.787 ± 0.018 O.D 415 nm	0.779 ± 0.024 O.D 415 nm	0.005 ± 0.003 O.D 415 nm	0.062 ± 0.004 O.D 415 nm	0.086 ± 0.004 O.D 415 nm	0.611 ± 0.018 O.D 415 nm	0.543 ± 0.029 O.D 415 nm
CCCCCCCCCCCCCCCC(=O)O[C@H](CCCCCCCCCCC)CC(=O)O[C@H]1O[C@H](CO)[C@@H](O)[C@H](O[C@H](C)C(=O)N[C@@H](C)C(=O)N[C@H](CCC(=O)OC)C(N)=O)[C@H]1NC(C)=O [Example 17, N-[2-0-{2-Acetamido-2,3-dideoxy-1-0-((3R)-3-hexadecanoyloxytetradecanoyl)-α-D-glucopyranos-3-yl}-D-lactoyl]-L-alanyl-D-isoglutamine methylester]	0.010 ± 0.002 O.D 415 nm	0.122 ± 0.006 O.D 415 nm	0.191 ± 0.001 O.D 415 nm	0.611 ± 0.017 O.D 415 nm	0.696 ± 0.014 O.D 415 nm	0.001 ± 0.004 O.D 415 nm	0.026 ± 0.001 O.D 415 nm	0.051 ± 0.001 O.D 415 nm	0.642 ± 0.021 O.D 415 nm	0.615 ± 0.021 O.D 415 nm
CCCCCCCCCCCCCCCCCC(=O)OC[C@H]1O[C@@H](SC(=O)C[C@@H](CCCCCCCCCCC)OC(=O)CCCCCCCCCCCCCCC)[C@H](NC(C)=O)[C@@H](O[C@H](C)C(=O)N[C@@H](C)C(=O)N[C@H](CCC(=O)OC)C(N)=O)[C@@H]1O [Example 20, N-[2-0-{2-Acetamido-2,3-dideoxy-6-0-octadecanoyl-1-S-((3R)-3-hexadecanoyloxytetradecanoyl)-1-thio-β-D-glucopyranos-3-yl}-D-lactoyl]-L-alanYl-D-isoglutamine methylester]	0.001 ± 0.001 O.D 415 nm	0.071 ± 0.001 O.D 415 nm	0.110 ± 0.008 O.D 415 nm	0.840 ± 0.011 O.D 415 nm	0.857 ± 0.023 O.D 415 nm	0.002 ± 0.001 O.D 415 nm	0.044 ± 0.005 O.D 415 nm	0.056 ± 0.003 O.D 415 nm	0.814 ± 0.018 O.D 415 nm	0.708 ± 0.002 O.D 415 nm
